Target: T1, CpomOR3 (Cydia pomonella, UniProt H9A5M3)
T1 construct: gene OR3; full-length ORF cloned in pUASg-HA.attB, expressed in Drosophila melanogaster ab3A olfactory neurons (pOr22a-Gal4ki empty neuron line); with Odorant receptor coreceptor (Drosophila melanogaster, endogenous in the ab3A neuron)
T1 sequence (H9A5M3 1-426): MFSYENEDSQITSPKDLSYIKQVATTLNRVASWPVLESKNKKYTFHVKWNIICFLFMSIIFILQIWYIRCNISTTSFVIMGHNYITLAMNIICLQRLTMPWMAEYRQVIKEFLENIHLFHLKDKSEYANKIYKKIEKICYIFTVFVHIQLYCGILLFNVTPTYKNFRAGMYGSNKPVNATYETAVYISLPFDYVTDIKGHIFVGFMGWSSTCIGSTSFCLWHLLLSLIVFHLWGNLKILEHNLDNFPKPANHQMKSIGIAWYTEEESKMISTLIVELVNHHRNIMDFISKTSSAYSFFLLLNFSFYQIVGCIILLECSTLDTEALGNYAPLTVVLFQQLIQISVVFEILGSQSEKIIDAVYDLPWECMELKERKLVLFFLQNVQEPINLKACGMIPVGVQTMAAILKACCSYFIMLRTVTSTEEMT
T1 sequence (Q9VNB5 1-486 partner): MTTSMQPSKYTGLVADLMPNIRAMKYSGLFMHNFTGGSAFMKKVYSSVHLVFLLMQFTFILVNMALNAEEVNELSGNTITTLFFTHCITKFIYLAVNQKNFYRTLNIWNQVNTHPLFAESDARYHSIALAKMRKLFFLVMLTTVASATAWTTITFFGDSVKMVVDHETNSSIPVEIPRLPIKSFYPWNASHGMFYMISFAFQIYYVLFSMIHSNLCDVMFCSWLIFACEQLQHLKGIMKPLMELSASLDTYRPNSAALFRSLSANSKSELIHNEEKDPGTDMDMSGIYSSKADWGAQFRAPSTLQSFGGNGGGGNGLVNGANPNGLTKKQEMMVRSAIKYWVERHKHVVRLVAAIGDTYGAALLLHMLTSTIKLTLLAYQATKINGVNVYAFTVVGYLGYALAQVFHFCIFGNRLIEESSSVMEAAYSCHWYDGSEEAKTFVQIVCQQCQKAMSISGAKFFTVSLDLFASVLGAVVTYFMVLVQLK
Assay: GC-coupled single sensillum recording (GC-SSR), ab3A neuron
Assay type: cell-based
Conditions: pear ester eluting from apple fruit headspace on GC, dose not stated, n = 3; activation; synthetic pear ester dose response (1, 10, 25 ng) not given
Text: GC-coupled single sensillum recording (GC-SSR), ab3A neuron on CpomOR3 | antennal sensilla expressing CpomOR3 began to respond at the retention time of pear ester

spike frequency response: 12.9 ± 4.1 spikes/s
SMILES: CCCCC/C=C\C=C\C(=O)OCC [pear ester, ethyl (E,Z)-2,4-decadienoate]

— publication PMC11772392, “Host Plant Odour and Sex Pheromone are Integral to Mate Finding in Codling Moth” (Journal of Chemical Ecology, 2025)
